Measurements published in patent US11445724B2, “Insecticidal compounds” (SYNGENTA PARTICIPATIONS AG, priority 2013, dated 2022).

Assays:
Type in all cases: in vivo
[1] = test system: Myzus persicae (Green peach aphid); assay: Myzus persicae (Green peach aphid) mortality, sprayed sunflower leaf discs; details: foliar, 144 h, 200 ppm spray on sunflower leaf discs, mixed ages, mortality 6 DAT
[2] = test system: Plutella xylostella (Diamond back moth); assay: Plutella xylostella (Diamond back moth) larval mortality, artificial diet in 24-well MTP; details: 144 h, application rate 200 ppm (concentration in well 18 ppm), L2 larvae, larval mortality after 6 days
[3] = test system: Thrips tabaci (Onion thrips); assay: Thrips tabaci (Onion thrips) mortality, sprayed sunflower leaf discs; details: foliar, 168 h, 200 ppm spray on sunflower leaf discs, mixed ages, mortality after 7 days
[4] = test system: Tetranychus urticae (Two-spotted spider mite); assay: Tetranychus urticae (Two-spotted spider mite) mortality, sprayed bean leaf discs; details: foliar, 192 h, 200 ppm spray on bean leaf discs, mixed ages, egg, larval and adult mortality after 8 days
[5] = test system: Diabrotica balteata (Corn root worm); assay: Diabrotica balteata (Corn root worm) larval mortality, artificial diet in 24-well MTP; details: 120 h, application rate 200 ppm (concentration in well 18 ppm), L2 larvae, larval mortality after 5 days
[6] = test system: Myzus persicae (Green peach aphid); assay: Myzus persicae (Green peach aphid) mortality, test compounds mixed with Sucrose solution under Parafilm; details: 120 h, 12.5 ppm in Sucrose solution, infested pea seedlings on Parafilm, mortality 5 days after infestation
[7] = test system: Spodoptera littoralis (Egyptian cotton leafworm); assay: Spodoptera littoralis (Egyptian cotton leafworm) mortality, sprayed cotton leaf discs; details: foliar, 72 h, 200 ppm spray on cotton leaf discs, L1 larvae, mortality 3 DAT

COc1c(C(=O)Nc2c(Br)cc(C(F)(C(F)(F)F)C(F)(F)F)cc2OC(F)F)cccc1N(C)C(=O)c1ccncc1 [Compound 102]
≥ 80%: pest or weed control at 200 ppm [1] | pest or weed control at 200 ppm [2] | pest or weed control at 200 ppm [3] | pest or weed control at 200 ppm [4] | pest or weed control at 200 ppm [5] | pest or weed control at 12.5 ppm [6] | pest or weed control at 200 ppm [7]

CCN(C(=O)c1ccncc1)c1cccc(C(=O)Nc2c(Cl)cc(C(F)(C(F)(F)F)C(F)(F)F)cc2OC(F)F)c1F [Compound 19]
≥ 80%: pest or weed control at 200 ppm [1] | pest or weed control at 200 ppm [2] | pest or weed control at 200 ppm [3] | pest or weed control at 200 ppm [4] | pest or weed control at 200 ppm [5] | pest or weed control at 12.5 ppm [6] | pest or weed control at 200 ppm [7]

CCN(C(=O)c1ccc(F)cc1)c1cccc(C(=O)Nc2c(Br)cc(C(F)(C(F)(F)F)C(F)(F)F)cc2OC(F)F)c1OC [Compound 139]
≥ 80%: pest or weed control at 200 ppm [1] | pest or weed control at 200 ppm [2] | pest or weed control at 200 ppm [3] | pest or weed control at 200 ppm [4] | pest or weed control at 200 ppm [5] | pest or weed control at 12.5 ppm [6] | pest or weed control at 200 ppm [7]

O=C(Nc1cccc(C(=O)Nc2c(Cl)cc(C(F)(C(F)(F)F)C(F)(F)F)cc2OC(F)F)c1F)c1ccc(F)cc1F [Compound 78]
≥ 80%: pest or weed control at 200 ppm [1] | pest or weed control at 200 ppm [2] | pest or weed control at 200 ppm [3] | pest or weed control at 200 ppm [4] | pest or weed control at 200 ppm [5] | pest or weed control at 12.5 ppm [6] | pest or weed control at 200 ppm [7]

CCN(C(=O)c1ccc([N+](=O)[O-])cc1)c1cccc(C(=O)Nc2c(Br)cc(C(F)(C(F)(F)F)C(F)(F)F)cc2OC(F)F)c1OC [Compound 162]
≥ 80%: pest or weed control at 200 ppm [1] | pest or weed control at 200 ppm [2] | pest or weed control at 200 ppm [3] | pest or weed control at 200 ppm [4] | pest or weed control at 200 ppm [5] | pest or weed control at 12.5 ppm [6] | pest or weed control at 200 ppm [7]

O=C(Nc1cccc(C(=O)Nc2c(Br)cc(C(F)(C(F)(F)F)C(F)(F)F)cc2OC(F)F)c1F)c1ccc(F)c(C(F)(F)F)c1 [Compound 27]
≥ 80%: pest or weed control at 200 ppm [1] | pest or weed control at 200 ppm [2] | pest or weed control at 200 ppm [3] | pest or weed control at 200 ppm [4] | pest or weed control at 200 ppm [5] | pest or weed control at 12.5 ppm [6] | pest or weed control at 200 ppm [7]

COc1c(NC(=O)c2ccc([N+](=O)[O-])cc2)cccc1C(=O)Nc1c(Br)cc(C(F)(C(F)(F)F)C(F)(F)F)cc1OC(F)F [Compound 39]
≥ 80%: pest or weed control at 200 ppm [1] | pest or weed control at 200 ppm [2] | pest or weed control at 200 ppm [3] | pest or weed control at 200 ppm [4] | pest or weed control at 200 ppm [5] | pest or weed control at 12.5 ppm [6] | pest or weed control at 200 ppm [7]

Cc1ccc(C(=O)Nc2cccc(C(=O)Nc3c(Br)cc(C(F)(C(F)(F)F)C(F)(F)F)cc3OC(F)F)c2F)cc1 [Compound 23]
≥ 80%: pest or weed control at 200 ppm [1] | pest or weed control at 200 ppm [2] | pest or weed control at 200 ppm [3] | pest or weed control at 200 ppm [4] | pest or weed control at 200 ppm [5] | pest or weed control at 12.5 ppm [6] | pest or weed control at 200 ppm [7]

O=C(Nc1cccc(C(=O)Nc2c(Br)cc(C(F)(C(F)(F)F)C(F)(F)F)cc2OC(F)F)c1F)c1ccc(F)cc1F [Compound 40]
≥ 80%: pest or weed control at 200 ppm [1] | pest or weed control at 200 ppm [2] | pest or weed control at 200 ppm [3] | pest or weed control at 200 ppm [4] | pest or weed control at 200 ppm [5] | pest or weed control at 12.5 ppm [6] | pest or weed control at 200 ppm [7]

CCN(C(=O)c1ccc([N+](=O)[O-])cc1)c1cccc(C(=O)Nc2c(Br)cc(C(F)(C(F)(F)F)C(F)(F)F)cc2OC(F)F)c1F [Compound 103]
≥ 80%: pest or weed control at 200 ppm [1] | pest or weed control at 200 ppm [2] | pest or weed control at 200 ppm [3] | pest or weed control at 200 ppm [4] | pest or weed control at 200 ppm [5] | pest or weed control at 12.5 ppm [6] | pest or weed control at 200 ppm [7]

O=C(Nc1cccc(C(=O)Nc2c(Br)cc(C(F)(C(F)(F)F)C(F)(F)F)cc2OC(F)F)c1F)c1cccc(F)c1F [Compound 38]
≥ 80%: pest or weed control at 200 ppm [1] | pest or weed control at 200 ppm [2] | pest or weed control at 200 ppm [3] | pest or weed control at 200 ppm [4] | pest or weed control at 200 ppm [5] | pest or weed control at 12.5 ppm [6] | pest or weed control at 200 ppm [7]

COc1c(NC(=O)c2ccc(OC(F)(F)F)cc2)cccc1C(=O)Nc1c(Br)cc(C(F)(C(F)(F)F)C(F)(F)F)cc1OC(F)F [Compound 50]
≥ 80%: pest or weed control at 200 ppm [1] | pest or weed control at 200 ppm [2] | pest or weed control at 200 ppm [3] | pest or weed control at 200 ppm [4] | pest or weed control at 200 ppm [5] | pest or weed control at 12.5 ppm [6] | pest or weed control at 200 ppm [7]

CCN(C(=O)c1ccc([N+](=O)[O-])cc1Cl)c1cccc(C(=O)Nc2c(Br)cc(C(F)(C(F)(F)F)C(F)(F)F)cc2OC(F)F)c1OC [Compound 135]
≥ 80%: pest or weed control at 200 ppm [1] | pest or weed control at 200 ppm [2] | pest or weed control at 200 ppm [3] | pest or weed control at 200 ppm [4] | pest or weed control at 200 ppm [5] | pest or weed control at 12.5 ppm [6] | pest or weed control at 200 ppm [7]

O=C(Nc1cccc(C(=O)Nc2c(Cl)cc(C(F)(C(F)(F)F)C(F)(F)F)cc2OC(F)F)c1F)c1ccc(F)cc1 [Compound 70]
≥ 80%: pest or weed control at 200 ppm [1] | pest or weed control at 200 ppm [2] | pest or weed control at 200 ppm [3] | pest or weed control at 200 ppm [4] | pest or weed control at 200 ppm [5] | pest or weed control at 12.5 ppm [6] | pest or weed control at 200 ppm [7]

COc1c(C(=O)C(C(C)=O)c2c(Br)cc(C(F)(C(F)(F)F)C(F)(F)F)cc2OC(F)F)cccc1N(C)C(=O)c1ccncc1 (stereo not drawn) [Compound 99]
≥ 80%: pest or weed control at 200 ppm [1] | pest or weed control at 200 ppm [2] | pest or weed control at 200 ppm [3] | pest or weed control at 200 ppm [4] | pest or weed control at 200 ppm [5] | pest or weed control at 12.5 ppm [6] | pest or weed control at 200 ppm [7]
